Source: publication PMC3679022, “A Cancer Specific Cell-Penetrating Peptide, BR2, for the Efficient Delivery of an scFv into Cancer Cells” (PLoS ONE, 2013)

Test system: HCT116 cells
Experiment: Detection of apoptosis by annexin V-FITC / 7-AAD flow cytometry
Assay type: cell-based, human
Conditions: proteins 2 µM, staurosporine 0.5 µM, 24 h
Description: In addition, apoptotic cells were identified by staining with annexin V-FITC (150 ng/ml) and 7 amino-actinomycin D (7-AAD; BD Biosciences, San Diego, CA). 1×10^6 HCT116 cells were treated with PBS, staurosporine (0.5 µM), or peptide-fused scFvs (each, 2 µM) as described above. At the designated time, cells were washed twice with PBS (pH 7.4), harvested and resuspended in 500 µl of binding buffer supplemented with Annexin-V fluos (1∶100 diluted; BioBud, Seoul, Korea), and incubated for 15 min at 25°C in the dark. To detect necrosis, 7AAD was added prior to measurement. Samples were immediately subjected to FACS analysis with a FACSCalibur flow cytometer (FL1 and FL3) and WinMDI software (Joe Trotter, Scripps Research Institute). 1×10^4 cells per sample were analyzed by flow cytometry.
Figure 5 The BR2-anti-Ras scFv fusion protein promotes apoptosis by blocking Ras signaling in Ras-mutated HCT116 cells. […] The numbers on the top of the quadrants indicate the percentage of apoptotic and late apoptotic/necrotic cells counted from dot plots taken from one representative experiment, performed in triplicate. […] Changes in Ras activity level in HCT116 cells treated with anti-Ras scFv and BR2- and Tat-scFv fusion proteins (each, 1 and 2 µM) were determined by an ELISA-based activity assay; results are expressed as relative Ras activity (%). […]

CN[C@@H]1C[C@H]2O[C@@](C)([C@@H]1OC)n1c3ccccc3c3c4c(c5c6ccccc6n2c5c31)C(=O)NC4 [staurosporine]
cells in the apoptotic stage (apoptotic and late apoptotic/necrotic): 61.6%
